Measured values from publication PMC6268433, “New Sorafenib Derivatives: Synthesis, Antiproliferative Activity Against Tumour Cell Lines and Antimetabolic Evaluation” (Molecules, 2012).

Tests used:
H 460 (lung carcinoma) = assay: Cytostatic activity, MTT assay; type: cell-based, human; conditions: Homo sapiens, NCI-H460, 72 h, read-out: Tumour cell growth/IC50 H 460
Protocol: (§1) The experiments were carried out on six human tumour and one murine cell lines, which are derived from five solid tumour types and two (one murine and one human) suspension tumour cell lines. The following cell lines were used: HCT 116 (colon carcinoma), SW 620 (colon carcinoma), MCF-7 (breast carcinoma), H 460 (lung carcinoma), L1210 (murine leukemia), CEM (human lymphoma) and HeLa (cervix carcinoma). […] Compounds 3d and 3e with a benzene ring in the amide moiety, exerted a somewhat stronger (but still rather poor) cytostatic effect (IC50 ≈ 20-90 µM). […] The compounds were also equally cytostatic against primary human embryonic lung (HEL) fibroblast cells (Table 2). The obtained data clearly point to the obligatory presence of the [4-chloro-3-(trifluoromethyl)phenyl]carbamoyl group being crucial for high potency. Also, the 4a–e series of compounds are far more lipophilic than the 2 and 3 series of compounds, which may be related to their increased cytostatic potential.
(§2) HCT 116, SW 620, MCF-7, and H 460 cells were cultured as monolayers and maintained in Dulbecco’s modified Eagle medium (DMEM), supplemented with 10% fetal bovine serum (FBS), 2 mmol·L^–1 L-glutamine, 100 U·mL^–1 penicillin and 100 μg·mL^–1 streptomycin in a humidified atmosphere with 5% CO2 at 37 °C. The growth inhibition activity was assessed as described previously, according to the slightly modified procedure of the National Cancer Institute, Developmental Therapeutics Program. Briefly, the cells were seeded onto standard 96-well microtiter plates on day 0. The cell concentrations were adjusted according to the cell population doubling time (PDT): 3000 cells/well for HCT116 and SW 620 cell lines (PDT = 20–24 h) and 4,000 cells/well for MCF-7 cell lines (PDT = 33 h). Tested agents were then added in five consecutive 10-fold dilutions (10^–8 to 10^–4 mol·L^–1) and incubated for further 72 h. Working dilutions were freshly prepared on the day of testing. The solvent (DMSO) was also tested for eventual inhibitory activity by adjusting its concentration to be the same as in working concentrations (maximal concentration of DMSO was 0.25%). After 72 h of incubation, the cell growth rate was evaluated by performing the MTT assay (Promega) which detects dehydrogenase activity in viable cells. The absorbency (OD, optical density) was measured on a microplate reader at 570 nm. Each test point was performed in quadruplicate in at least three individual experiments. The results are expressed as IC50, which is the concentration necessary for 50% of inhibition. […] Each result is a mean value from three separate experiments.

MCF-7 (breast carcinoma) = assay: Cytostatic activity, MTT assay; type: cell-based, human; conditions: Homo sapiens, MCF7, 72 h, read-out: Tumour cell growth/IC50 MCF-7
Protocol: as §1, §2

SW 620 (colon carcinoma) = assay: Cytostatic activity, MTT assay; type: cell-based, human; conditions: Homo sapiens, SW-620, 72 h, read-out: Tumour cell growth/IC50 SW 620
Protocol: as §1, §2

[1] = tested on: HCT 116 (colon carcinoma); assay: Cytostatic activity, MTT assay; type: cell-based, human; conditions: Homo sapiens, HCT-116, 72 h, read-out: Tumour cell growth/IC50 HCT 116
Protocol: as §1, §2

[2] = tested on: DNA synthesis in CEM cells; assay: Antimetabolic activity: [CH3-3H]dThd incorporation (DNA synthesis) in CEM cell cultures; type: cell-based; conditions: Homo sapiens, CCRF-CEM, ~20 h, TCA-insoluble material
Source text: (§3) A variety of compounds (2a, 3a, 4a with a cycloalkyl substituent directly attached to nitrogen atom, 2c, 3c, 4c with a cycloalkyl bound to nitrogen through a short spacer and 2e, 3e, 4e with an aromatic substituent) have been investigated on their inhibitory activity against DNA, RNA and protein synthesis in CEM cell cultures. The compounds were equally inhibitory to dThd (DNA synthesis), Urd (RNA synthesis) and Leu (protein synthesis) incorporation into TCA-insoluble cell material. The 2 series of compounds were least inhibitory whereas the 4 series were most inhibitory (IC50 in the lower micromolar range). Their antimetabolic IC50 values closely corresponded to their antiproliferative IC50 values. They also behaved as sorafenib in terms of antimetabolic potential (Table 3).
(§4) The procedures have been modified from previously described methods. Human CEM cells were seeded in 96-well microtiter plates at 10 × 10^4 cells/200 µL-well in the presence of serial dilutions of the tested compounds. Then, 0.25 µCi of [CH3-^3H]dThd (radiospecificity: 52 Ci/mmol) or 1 µCi of [5-^3H]Urd (radiospecificity: 26 Ci/mmol) or [4,5-^3H]Leu (radiospecificity: 160 Ci/mmol) were added and the drug-exposed tumour cell cultures further incubated at 37 °C for ~20 h. Then the content of each well was transfered to glass fiber discs (Wattman, GE Healthcare, Maidstone, UK), mounted on a manifold (Millipore, Billerica, MA, USA) and subsequently washed with PBS (to remove the radiolabel material that has not been incorporated in the cellular macromolecules), 10% and 5% trichoroacetic acid (TCA) (to precipitate DNA, RNA and proteins) and ethanol. Then, the radioactivity (TCA precipitate) associated with each disc was determined in a liquid scintillation counter (Packard, Palo Alto, CA, USA).

HeLa (cervix carcinoma) = assay: Cytostatic activity, Coulter counter; type: cell-based, human; conditions: Homo sapiens, HeLa; 72 h, cell number by Coulter counter; read-out: Tumour cell growth/IC50 HeLa
Protocol: as §1
(§5) The cytostatic activity of the tested compounds against murine leukemia L1210, human cervix carcinoma HeLa, human embrionic lung (HEL) and T-lymphocyte CEM cells was determined with cells grown in suspension (L1210, CEM) or monolayers (HeLa, HEL) in 200 µL-wells of 96-well microtiter plates (initial cell number: 5–7.5 × 10^4 cells/well). After 48 (L1210) or 72 (CEM, HeLa, HEL) h, the tumour cell number was determined by the use of a Coulter counter.

[3] = tested on: protein synthesis in CEM cells; assay: Antimetabolic activity: [4,5-3H]Leu incorporation (protein synthesis) in CEM cell cultures; type: cell-based; conditions: Homo sapiens, CCRF-CEM, ~20 h, TCA-insoluble material
Source text: as §3, §4

[4] = tested on: RNA synthesis in CEM cells; assay: Antimetabolic activity: [5-3H]Urd incorporation (RNA synthesis) in CEM cell cultures; type: cell-based; conditions: Homo sapiens, CCRF-CEM, ~20 h, TCA-insoluble material
Source text: as §3, §4

CEM (human lymphoma) = assay: Cytostatic activity, Coulter counter; type: cell-based; conditions: Homo sapiens; 72 h, cell number by Coulter counter; read-out: Tumour cell growth/IC50 CEM
Protocol: as §1, §5

[5] = tested on: primary human embryonic lung (HEL) fibroblast cells; assay: Cytostatic activity, Coulter counter; type: cell-based; conditions: Homo sapiens, Fibroblast; 72 h, cell number by Coulter counter; primary fibroblasts
Protocol: as §1, §5

L1210 (murine leukemia) = assay: Cytostatic activity, Coulter counter; type: cell-based; conditions: Mus musculus, L1210; 48 h, cell number by Coulter counter; read-out: Tumour cell growth/IC50 L1210
Protocol: as §1, §5

O=C(NCC1CCCCC1)c1cc(Cl)ccn1 [Compound 2c, 4-Chloro-N-cyclohexylmethylpyridine-2-carboxamide]
IC50 (H 460 (lung carcinoma)): > 100 µM | IC50 (MCF-7 (breast carcinoma)): ≥ 100 µM | IC50 (SW 620 (colon carcinoma)): ≥ 100 µM | IC50 [1]: ≥ 100 µM | IC50 [2]: > 100 µM | IC50 (HeLa (cervix carcinoma)): > 100 µM | melting point: 107 to 108 °C | IC50 [3]: > 100 µM | IC50 [4]: > 100 µM | IC50 (CEM (human lymphoma)): > 100 µM | IC50 [5]: > 100 µM | IC50 (L1210 (murine leukemia)): > 100 µM

O=C(Nc1ccc(Oc2ccnc(C(=O)NCc3ccccc3)c2)cc1)Nc1ccc(Cl)c(C(F)(F)F)c1 [Compound 4d, 4-[4-[[4-Chloro-3-(trifluoromethyl)phenyl]carbamoylamino]phenoxy]-N-benzyl-pyridine-2-carbox-amide]
IC50 (H 460 (lung carcinoma)): 2 ± 0.2 µM | IC50 (MCF-7 (breast carcinoma)): 2 ± 0.2 µM | IC50 (SW 620 (colon carcinoma)): 2 ± 0.08 µM | IC50 [1]: 2 ± 0.8 µM | IC50 (HeLa (cervix carcinoma)): 2.6 ± 0.6 µM | melting point: 160 to 163 °C | IC50 (CEM (human lymphoma)): 4.3 ± 0.4 µM | IC50 [5]: 3.1 ± 0.2 µM | IC50 (L1210 (murine leukemia)): 2 ± 0.4 µM

Nc1ccc(Oc2ccnc(C(=O)NCC3CCCCC3)c2)cc1 [Compound 3c, 4-(4-Aminophenoxy)-N-cyclohexylmethylpyridine-2-carboxamide]
IC50 (H 460 (lung carcinoma)): > 100 µM | IC50 (MCF-7 (breast carcinoma)): ≥ 100 µM | IC50 (SW 620 (colon carcinoma)): ≥ 100 µM | IC50 [1]: ≥ 100 µM | IC50 [2]: > 100 µM | IC50 (HeLa (cervix carcinoma)): > 100 µM | melting point: 135 to 137 °C | IC50 [3]: 70.6 ± 27.6 µM | IC50 [4]: 92.1 ± 43 µM | IC50 (CEM (human lymphoma)): > 100 µM | IC50 [5]: > 100 µM | IC50 (L1210 (murine leukemia)): 163 ± 147 µM

O=C(NCCc1ccccc1)c1cc(Cl)ccn1 [Compound 2e, 4-Chloro-N-phenylethylpyridine-2-carboxamide]
IC50 (H 460 (lung carcinoma)): > 100 µM | IC50 (MCF-7 (breast carcinoma)): 57 ± 46 µM | IC50 (SW 620 (colon carcinoma)): > 100 µM | IC50 [1]: ≥ 100 µM | IC50 [2]: > 100 µM | IC50 (HeLa (cervix carcinoma)): > 100 µM | IC50 [3]: > 100 µM | IC50 [4]: > 100 µM | IC50 (CEM (human lymphoma)): > 100 µM | IC50 [5]: > 100 µM | IC50 (L1210 (murine leukemia)): > 100 µM

O=C(Nc1ccc(Oc2ccnc(C(=O)NC3CCCCC3)c2)cc1)Nc1ccc(Cl)c(C(F)(F)F)c1 [Compound 4b, 4-[4-[[4-Chloro-3-(trifluoromethyl)phenyl]carbamoylamino]phenoxy]-N-cyclohexyl-pyridine-2-carboxamide]
IC50 (H 460 (lung carcinoma)): 2 µM | IC50 (MCF-7 (breast carcinoma)): 2 ± 0.6 µM | IC50 (SW 620 (colon carcinoma)): 3 ± 0.2 µM | IC50 [1]: 3 ± 0.8 µM | IC50 (HeLa (cervix carcinoma)): 3 ± 0.2 µM | IC50 (CEM (human lymphoma)): 3.6 ± 0.9 µM | IC50 [5]: 3.2 ± 0.2 µM | IC50 (L1210 (murine leukemia)): 3.2 ± 1.7 µM

O=C(NCc1ccccc1)c1cc(Cl)ccn1 [Compound 2d, 4-Chloro-N-benzylpyridine-2-carboxamide]
IC50 (H 460 (lung carcinoma)): > 100 µM | IC50 (MCF-7 (breast carcinoma)): ≥ 100 µM | IC50 (SW 620 (colon carcinoma)): 71 ± 28 µM | IC50 [1]: ≥ 100 µM | IC50 (HeLa (cervix carcinoma)): > 100 µM | melting point: 70 to 72 °C | IC50 (CEM (human lymphoma)): ≥ 100 µM | IC50 [5]: > 100 µM | IC50 (L1210 (murine leukemia)): ≥ 100 µM

O=C(NC1CCCCC1)c1cc(Cl)ccn1 [Compound 2b, 4-Chloro-N-cyclohexylpyridine-2-carboxamide]
IC50 (H 460 (lung carcinoma)): 35 ± 12 µM | IC50 (MCF-7 (breast carcinoma)): ≥ 100 µM | IC50 (SW 620 (colon carcinoma)): > 100 µM | IC50 [1]: > 100 µM | IC50 (HeLa (cervix carcinoma)): > 100 µM | melting point: 116 to 119 °C | IC50 (CEM (human lymphoma)): > 100 µM | IC50 [5]: > 100 µM | IC50 (L1210 (murine leukemia)): > 100 µM

O=C(Nc1ccc(Oc2ccnc(C(=O)NCCc3ccccc3)c2)cc1)Nc1ccc(Cl)c(C(F)(F)F)c1 [Compound 4e, 4-[4-[[4-Chloro-3-(trifluoromethyl)phenyl]carbamoylamino]phenoxy]-N-phenylethyl-pyridine-2-carboxamide]
IC50 (H 460 (lung carcinoma)): 2 ± 0.2 µM | IC50 (MCF-7 (breast carcinoma)): 2 ± 0.1 µM | IC50 (SW 620 (colon carcinoma)): 2 ± 0.4 µM | IC50 [1]: 3 ± 0.7 µM | IC50 [2]: 12.7 ± 9 µM | IC50 (HeLa (cervix carcinoma)): 1.7 ± 0.2 µM | IC50 [3]: 11.8 ± 7.7 µM | IC50 [4]: 6.6 ± 1.8 µM | IC50 (CEM (human lymphoma)): 2.5 ± 0.9 µM | IC50 [5]: 4.6 ± 0.36 µM | IC50 (L1210 (murine leukemia)): 2.2 ± 0.2 µM

Nc1ccc(Oc2ccnc(C(=O)NC3CCCCC3)c2)cc1 [Compound 3b, 4-(4-Aminophenoxy)-N-cyclohexylpyridine-2-carboxamide]
IC50 (H 460 (lung carcinoma)): 65 ± 33 µM | IC50 (MCF-7 (breast carcinoma)): ≥ 100 µM | IC50 (SW 620 (colon carcinoma)): ≥ 100 µM | IC50 [1]: 37 ± 1 µM | IC50 (HeLa (cervix carcinoma)): > 100 µM | melting point: 150 to 153 °C | IC50 (CEM (human lymphoma)): > 100 µM | IC50 [5]: > 100 µM | IC50 (L1210 (murine leukemia)): 234 ± 4.5 µM
